Holding throughout (type): functional
One test relates to Staphylococcus aureus. The test is described as follows: Antibacterial activity against Staphylococcus aureus 209P assessed as reduction in microbial growth after 1 day by two-fold dilution method. Conditions: 24 h.
Another test concerns Escherichia coli. The test is described as follows: Antibacterial activity against Escherichia coli assessed as reduction in microbial growth after 1 day by two-fold dilution method. The settings on record: 24 h.
The next test concerns Candida albicans. Description: Antifungal activity against Candida albicans ATCC96901 assessed as reduction in microbial growth after 2 to 3 days by two-fold dilution method. The settings on record: time day 2-3.
The subject of the next test is Cryptococcus neoformans. Description: Antifungal activity against Cryptococcus neoformans assessed as reduction in microbial growth after 2 to 3 days by two-fold dilution method. The settings on record: time day 2-3.

Consider `C/C=C/C[C@H](C)C[C@@]1(C)Oc2c(-c3ccc(O)cc3)c[nH]c(=O)c2[C@H]1O`, for which the MIC in the test on Staphylococcus aureus, in the test on Escherichia coli and in the test with Candida albicans was greater than 100 µM throughout.
In the case of `C[C@H]1C[C@@H]2[C@H](c3c(c(-c4ccc(O)cc4)c[nH]c3=O)O[C@@H]2C)[C@@H](C)C1`, the MIC (commonly the lowest concentration that inhibits growth of the organism) is 6.25 µM in the test on Cryptococcus neoformans, greater than 100 µM with Staphylococcus aureus, greater than 100 µM in the test on Escherichia coli and greater than 100 µM with Candida albicans.
`C[C@H]1[C@H](O)[C@@H](C)C[C@@H]2[C@@H]1c1c(c(-c3ccc(O)cc3)c[nH]c1=O)O[C@H]2C`: the minimal inhibitory concentration (MIC) in the test on Cryptococcus neoformans, in the test with Staphylococcus aureus, with Escherichia coli and in the test with Candida albicans was greater than 100 µM in each case.
For `C/C=C/C[C@H](C)C[C@]1(C)Oc2c(-c3ccc(O)cc3)c[nH]c(=O)c2[C@@H]1O`, the MIC with Staphylococcus aureus, in the test with Escherichia coli and with Candida albicans was greater than 100 µM in each case.
Take `C/C=C/C[C@H](C)C[C@H](C)C(=O)C1=C(O)[C@H]([C@@H](O)c2ccc(O)cc2)NC1=O`: the MIC with Cryptococcus neoformans is 25 µM; in the test on Staphylococcus aureus it was greater than 100 µM; in the test with Escherichia coli it was greater than 100 µM; in the test on Candida albicans, greater than 100 µM.
For `C/C=C/C[C@H](C)C[C@H](C)C(=O)c1c(O)cc[nH]c1=O`, the MIC in the test on Cryptococcus neoformans, in the test on Staphylococcus aureus, with Escherichia coli and in the test with Candida albicans was greater than 100 µM throughout.
Turning to `C/C=C/C[C@H](C)C[C@H](C)C(=O)C1=C(O)/C(=C/c2ccc(O)cc2)NC1=O`, the MIC with Cryptococcus neoformans, in the test on Staphylococcus aureus, in the test on Escherichia coli and in the test on Candida albicans was greater than 100 µM throughout.
`C/C=C/C[C@H](C)C[C@H](C)C(=O)c1c(O)c(-c2ccc(O)cc2)c[nH]c1=O`: the MIC in the test on Cryptococcus neoformans is 6.25 µM; in the test with Staphylococcus aureus, greater than 100 µM; with Escherichia coli it was greater than 100 µM; in the test with Candida albicans, greater than 100 µM.
`C/C=C/C[C@H](C)C[C@H](C)C(=O)C1=C(O)[C@H](Cc2ccc(O)cc2)NC1=O`: the MIC in the test with Cryptococcus neoformans, with Staphylococcus aureus, in the test with Escherichia coli and in the test on Candida albicans was greater than 100 µM in each case.
As for `C/C=C/C[C@H](C)C[C@]1(C)Oc2c(-c3ccc(O)cc3)c[nH]c(=O)c2[C@H]1O`, the MIC with Staphylococcus aureus, in the test with Escherichia coli and in the test with Candida albicans was greater than 100 µM throughout.
For the compound `C/C=C/C[C@H](C)C[C@@]1(C)Oc2c(-c3ccc(O)cc3)c[nH]c(=O)c2[C@@H]1O`, the MIC in the test with Staphylococcus aureus, in the test with Escherichia coli and in the test with Candida albicans was greater than 100 µM throughout.
